# Target: T1, JAK2 (JH1domain-catalytic, Y1007F,Y1008F) kinase (Homo sapiens, UniProt O60674, Y1007F/Y1008F)
# T1 construct: JAK2 (JH1domain-catalytic, Y1007F,Y1008F) kinase was expressed as N-terminal fusion; made in house; host or cells: transiently transfected HEK293 cells
# Test: JAK2 JH1 Domain Binding Assay
# Conditions: qPCR readout
# T1 sequence (O60674 849-1124 Y1007F/Y1008F limits assumed): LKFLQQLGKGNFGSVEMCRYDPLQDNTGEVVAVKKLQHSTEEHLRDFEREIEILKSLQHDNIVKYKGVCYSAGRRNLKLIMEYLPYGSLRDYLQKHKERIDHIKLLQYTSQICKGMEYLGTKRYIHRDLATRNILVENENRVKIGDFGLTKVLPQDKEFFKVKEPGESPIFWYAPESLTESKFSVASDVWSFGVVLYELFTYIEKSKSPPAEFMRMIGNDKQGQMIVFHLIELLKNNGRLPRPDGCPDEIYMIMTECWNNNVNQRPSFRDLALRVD
row,Kd,Compound
1,10 to 50 nM,"Cn1c(Nc2cc(C(C)(C)C)n([C@@H]3COC[C@H]3O)n2)nc2ncc(Oc3cnc4cnc(C5CC5)n4c3)c(Cl)c21 (single isomer, unassigned) [Example I-76-b]"
2,< 10 nM,"C[C@H](CO)Cn1cc(C2CC2)cc(Nc2nc3ncc(Oc4cnn5ccncc45)c(Cl)c3n2C)c1=O (single isomer, unassigned) [Example I-81-a]"
3,< 10 nM,"C[C@@H](CO)Cn1cc(C2CC2)cc(Nc2nc3ncc(Oc4cnn5ccncc45)c(Cl)c3n2C)c1=O (single isomer, unassigned) [Example I-81-b]"
4,10 to 50 nM,"Cn1c(Nc2cc(C(C)(C)C)n([C@H]3COC[C@@H]3O)n2)nc2ncc(Oc3cnc4cnc(C5CC5)n4c3)c(C(F)F)c21 (single isomer, unassigned) [Example I-93-a]"
5,50 to 1000 nM,"Cn1c(Nc2cc(C(C)(C)C)n([C@@H]3COC[C@H]3O)n2)nc2ncc(Oc3cnc4cnc(C5CC5)n4c3)c(C(F)F)c21 (single isomer, unassigned) [Example I-93-b]"
6,< 10 nM,"Cn1c(Nc2cc(C3CC3)cn([C@H]3CC[C@@H]3O)c2=O)nc2ncc(Oc3cnn4ccncc34)c(Cl)c21 (single isomer, unassigned) [Example I-95-a]"
7,< 10 nM,"Cn1c(Nc2cc(C3CC3)cn([C@@H]3CC[C@H]3O)c2=O)nc2ncc(Oc3cnn4ccncc34)c(Cl)c21 (single isomer, unassigned) [Example I-95-b]"
8,< 10 nM,"Cn1c(Nc2cc(C3CC3)cn([C@@H]3CC[C@@H]3O)c2=O)nc2ncc(Oc3cnn4ccncc34)c(Cl)c21 (single isomer, unassigned) [Example I-98-a]"
9,< 10 nM,"Cn1c(Nc2cc(C3CC3)cn([C@H]3CC[C@H]3O)c2=O)nc2ncc(Oc3cnn4ccncc34)c(Cl)c21 (single isomer, unassigned) [Example I-98-b]"
10,< 10 nM,"Cn1c(Nc2cc(C3CC3)cn([C@H]3CC[C@@H]3O)c2=O)nc2ncc(Oc3cnn4ccccc34)c(Cl)c21 (single isomer, unassigned) [Example I-99-a]"
11,< 10 nM,"Cn1c(Nc2cc(C3CC3)cn([C@@H]3CC[C@H]3O)c2=O)nc2ncc(Oc3cnn4ccccc34)c(Cl)c21 (single isomer, unassigned) [Example I-99-b]"
12,< 10 nM,"COc1c(Oc2cnn3ccccc23)cnc2nc(Nc3cc(C4CC4)cn([C@H]4CCCOC4)c3=O)n(C)c12 (single isomer, unassigned) [Example I-101-a]"
13,< 10 nM,"COc1c(Oc2cnn3ccccc23)cnc2nc(Nc3cc(C4CC4)cn([C@@H]4CCCOC4)c3=O)n(C)c12 (single isomer, unassigned) [Example I-101-b]"
14,< 10 nM,"COc1c(Oc2cnn3ccncc23)cnc2nc(Nc3cc(C4CC4)cn([C@@H]4CC[C@@H]4O)c3=O)n(C)c12 (single isomer, unassigned) [Example I-104-a]"
15,< 10 nM,"COc1c(Oc2cnn3ccncc23)cnc2nc(Nc3cc(C4CC4)cn([C@H]4CC[C@H]4O)c3=O)n(C)c12 (single isomer, unassigned) [Example I-104-b]"
16,< 10 nM,"Cn1c(Nc2cc(C(F)(F)F)cn([C@H]3CC[C@@H]3O)c2=O)nc2ncc(Oc3cnn4ccncc34)c(Cl)c21 (single isomer, unassigned) [Example I-105-a]"
17,< 10 nM,"Cn1c(Nc2cc(C(F)(F)F)cn([C@@H]3CC[C@H]3O)c2=O)nc2ncc(Oc3cnn4ccncc34)c(Cl)c21 (single isomer, unassigned) [Example I-105-b]"
18,< 10 nM,"Cn1c(Nc2cc(C(F)(F)F)cn([C@@H]3CCCOC3)c2=O)nc2ncc(Oc3cnn4ccncc34)c(Cl)c21 (single isomer, unassigned) [Example I-107-a]"

row,Kd,Compound
1,< 10 nM,"Cn1c(Nc2cc(C(F)(F)F)cn([C@H]3CCCOC3)c2=O)nc2ncc(Oc3cnn4ccncc34)c(Cl)c21 (single isomer, unassigned) [Example I-107-b]"
2,< 10 nM,"COc1c(Oc2cnn3ccncc23)cnc2nc(Nc3cc(C4CC4)cn([C@H]4CC[C@@H]4O)c3=O)n(C)c12 (single isomer, unassigned) [Example I-110-a]"
3,10 to 50 nM,"COc1c(Oc2cnn3ccncc23)cnc2nc(Nc3cc(C4CC4)cn([C@@H]4CC[C@H]4O)c3=O)n(C)c12 (single isomer, unassigned) [Example I-110-b]"
4,10 to 50 nM,"COc1c(Oc2cnn3ccncc23)cnc2nc(Nc3cc(C(F)(F)F)cn([C@H]4CC[C@@H]4O)c3=O)n(C)c12 (single isomer, unassigned) [Example I-113-a]"
5,10 to 50 nM,"COc1c(Oc2cnn3ccncc23)cnc2nc(Nc3cc(C(F)(F)F)cn([C@@H]4CC[C@H]4O)c3=O)n(C)c12 (single isomer, unassigned) [Example I-113-b]"
6,< 10 nM,"Cn1c(Nc2cc(C3CC3)cn([C@@H]3CC[C@@H]3O)c2=O)nc2ncc(Oc3cnn4ccccc34)c(Cl)c21 (single isomer, unassigned) [Example I-114-a]"
7,< 10 nM,"Cn1c(Nc2cc(C3CC3)cn([C@H]3CC[C@H]3O)c2=O)nc2ncc(Oc3cnn4ccccc34)c(Cl)c21 (single isomer, unassigned) [Example I-114-b]"
8,< 10 nM,"Cn1c(Nc2cc(C(F)(F)F)cn([C@@H]3CC[C@@H]3O)c2=O)nc2ncc(Oc3cnn4ccncc34)c(Cl)c21 (single isomer, unassigned) [Example I-119-a]"
9,< 10 nM,"Cn1c(Nc2cc(C(F)(F)F)cn([C@H]3CC[C@H]3O)c2=O)nc2ncc(Oc3cnn4ccncc34)c(Cl)c21 (single isomer, unassigned) [Example I-119-b]"
10,< 10 nM,"COc1c(Oc2cnn3ccncc23)cnc2nc(Nc3cc(C4CC4)cn([C@@H](C)CC#N)c3=O)n(C)c12 (single isomer, unassigned) [Example I-121-a]"
11,< 10 nM,"COc1c(Oc2cnn3ccncc23)cnc2nc(Nc3cc(C4CC4)cn([C@H](C)CC#N)c3=O)n(C)c12 (single isomer, unassigned) [Example I-121-b]"
12,< 10 nM,"COc1c(Oc2cnn3ccccc23)cnc2nc(Nc3cc(C4CC4)cn([C@@H]4CC[C@H]4O)c3=O)n(C)c12 (single isomer, unassigned) [Example I-122-a]"
13,< 10 nM,"COc1c(Oc2cnn3ccccc23)cnc2nc(Nc3cc(C4CC4)cn([C@H]4CC[C@@H]4O)c3=O)n(C)c12 (single isomer, unassigned) [Example I-122-b]"
14,< 10 nM,"COc1c(Oc2cnn3ccccc23)cnc2nc(Nc3cc(C4CC4)cn([C@@H]4CC[C@@H]4O)c3=O)n(C)c12 (single isomer, unassigned) [Example I-131-a]"
15,10 to 50 nM,"COc1c(Oc2cnn3ccccc23)cnc2nc(Nc3cc(C4CC4)cn([C@H]4CC[C@H]4O)c3=O)n(C)c12 (single isomer, unassigned) [Example I-131-b]"
16,< 10 nM,"Cn1cc(C2CC2)cc(Nc2nc3ncc(Oc4cnn5ccnc(O[C@@H]6CC[C@H]6O)c45)c(Cl)c3n2C)c1=O (single isomer, unassigned) [Example I-133-a]"
17,< 10 nM,"Cn1cc(C2CC2)cc(Nc2nc3ncc(Oc4cnn5ccnc(O[C@H]6CC[C@@H]6O)c45)c(Cl)c3n2C)c1=O (single isomer, unassigned) [Example I-133-b]"
18,< 10 nM,"Cn1cc(C(F)(F)F)cc(Nc2nc3ncc(Oc4cnn5ccnc(O[C@@H]6CC[C@H]6O)c45)c(Cl)c3n2C)c1=O (single isomer, unassigned) [Example I-139-a]"
